# Test results reported in patent publication US20240239861A1, “GLUCAGON-RECEPTOR SELECTIVE POLYPEPTIDES AND METHODS OF USE THEREOF” (i2O Therapeutics, Inc., priority 2016, published 2024).
# Like-named read-outs stand apart in the source and are kept apart here. Where a SMILES comes first, the peptide text is derived from it. [ ]: non-standard residue; d: D form. Aib = CC(C)(N)C(=O)O
# Legend:
# in vivo = details: male, rat
# human GCGR = human GCGR (Homo sapiens, UniProt P47871); assay: Peptide-receptor mediated cAMP accumulation (LANCE Ultra cAMP) in CHO-K1 cells transfected with human GCGR; assay type: cell-based
# human GLP-1R = human GLP-1R (Homo sapiens, UniProt P43220); assay: Peptide-receptor mediated cAMP accumulation (LANCE Ultra cAMP) in CHO-K1 cells transfected with human GLP-1R; assay type: cell-based
# [1] = Solubility in water or saline at room temperature, visual inspection; assay type: physicochemical; details: Solubility in water mg/ml
# Text: Samples were visually inspected for clarity of the sample, any appearance of turbidity or haziness.
# [2] = Clearance following intravenous infusion, acylated peptides (1-hour infusion, 0.033 mg/kg); details: rat, in vivo
# [3] = hGLP1 pEC50 (cAMP mean (n = 3): 11 point curve starting at 1 nM, Table 3)
# [4] = read-out: GluR pEC50 (converted)
# [5] = Table 7, GLP-1R, read-out: GLP-1R pEC50 (converted)
# Chain of human GCGR (P47871 26-477): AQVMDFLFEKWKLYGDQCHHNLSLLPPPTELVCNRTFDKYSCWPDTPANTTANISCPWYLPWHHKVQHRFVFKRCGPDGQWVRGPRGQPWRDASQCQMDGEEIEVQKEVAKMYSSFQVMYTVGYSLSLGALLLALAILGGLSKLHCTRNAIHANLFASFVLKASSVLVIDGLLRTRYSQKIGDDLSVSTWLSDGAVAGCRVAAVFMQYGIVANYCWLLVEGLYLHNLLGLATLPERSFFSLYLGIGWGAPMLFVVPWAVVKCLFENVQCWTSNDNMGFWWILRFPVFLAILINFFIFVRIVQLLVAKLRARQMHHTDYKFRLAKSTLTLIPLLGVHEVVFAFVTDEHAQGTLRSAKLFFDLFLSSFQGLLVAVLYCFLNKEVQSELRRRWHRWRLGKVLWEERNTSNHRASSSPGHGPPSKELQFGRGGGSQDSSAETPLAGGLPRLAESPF
# Chain of human GLP-1R (P43220 24-463): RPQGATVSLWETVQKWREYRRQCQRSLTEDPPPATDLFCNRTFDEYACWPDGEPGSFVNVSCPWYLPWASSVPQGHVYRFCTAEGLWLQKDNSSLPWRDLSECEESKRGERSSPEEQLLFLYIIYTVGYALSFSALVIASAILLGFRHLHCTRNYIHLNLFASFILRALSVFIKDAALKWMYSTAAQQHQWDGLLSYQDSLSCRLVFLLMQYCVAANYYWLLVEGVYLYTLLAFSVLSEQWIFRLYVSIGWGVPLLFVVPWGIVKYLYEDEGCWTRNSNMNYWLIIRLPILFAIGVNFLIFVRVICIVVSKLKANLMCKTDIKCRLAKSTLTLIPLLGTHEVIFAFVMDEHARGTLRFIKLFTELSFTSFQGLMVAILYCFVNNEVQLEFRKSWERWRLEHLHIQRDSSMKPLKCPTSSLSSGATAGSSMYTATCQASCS
SMILES,clearance (in vivo) [mL/min/kg],EC50 (human GCGR; Table 3) [nM],EC50 (human GLP-1R; [3]) [nM],EC50 (human GCGR; Table 2B) [nM],hGCGR pEC50 (cAMP mean (n = 3): 11 point curve starting at 1 nM) (human GCGR; Table 3),solubility [1] [mg/mL],"EC50 (human GLP-1R; hGLP1 pEC50 (cAMP) mean (n = 3): 11 point curve starting at 1 nM, Table 2B) [nM]",clearance [2] [mL/min/kg],half-life [2] [h],EC50 (human GCGR; [4]) [nM],EC50 (human GLP-1R; [5]) [nM]
CC(C)C[C@H](NC(=O)[C@H](Cc1ccc(O)cc1)NC(=O)[C@H](CCCCN)NC(=O)[C@H](CO)NC(=O)[C@H](Cc1ccc(O)cc1)NC(=O)[C@H](CC(=O)O)NC(=O)[C@H](CO)NC(=O)[C@@H](NC(=O)[C@H](Cc1ccccc1)NC(=O)[C@@H](NC(=O)CNC(=O)[C@H](Cc1c[nH]cn1)NC(=O)[C@H](CO)NC(=O)[C@@H](N)Cc1ccc(O)cc1)[C@@H](C)O)[C@@H](C)O)C(=O)N[C@@H](CC(=O)O)C(=O)N[C@@H](CO)C(=O)N[C@@H](C)C(=O)N[C@@H](CCCNC(=N)N)C(=O)N[C@@H](C)C(=O)N[C@@H](CCC(N)=O)C(=O)N[C@@H](CCC(=O)O)C(=O)N[C@@H](Cc1ccccc1)C(=O)N[C@H](C(=O)N[C@@H](CCCCN)C(=O)N[C@@H](Cc1c[nH]c2ccccc12)C(=O)N[C@@H](CC(C)C)C(=O)N[C@@H](CCC(=O)O)C(=O)N[C@@H](CC(=O)O)C(=O)N[C@@H](CCC(=O)O)C(=O)N1CCC[C@H]1C(=O)N[C@@H](CCCCN)C(=O)N[C@@H](CO)C(=O)N[C@@H](CCCCN)C(=O)N[C@@H](CO)C(=O)N1CCC[C@H]1C(=O)N1CCC[C@H]1C(=O)N1CCC[C@H]1C(=O)N[C@@H](CO)C(=O)O)C(C)C [Compound A70] (H-YSHGTFTSDYSKYLDSARAQEFVKWLEDEPKSKSPPPS-OH; N-terminus assumed),20.9,0.001,> 1,–,–,–,–,–,–,–,–
CC(C)C[C@H](NC(=O)[C@H](Cc1ccc(O)cc1)NC(=O)[C@H](CCCCN)NC(=O)[C@H](CO)NC(=O)[C@H](Cc1ccc(O)cc1)NC(=O)[C@H](CC(=O)O)NC(=O)[C@H](CO)NC(=O)[C@@H](NC(=O)[C@H](Cc1ccccc1)NC(=O)[C@@H](NC(=O)CNC(=O)[C@H](Cc1c[nH]cn1)NC(=O)[C@H](CO)NC(=O)[C@@H](N)Cc1ccc(O)cc1)[C@@H](C)O)[C@@H](C)O)C(=O)N[C@@H](CC(=O)O)C(=O)N[C@@H](CO)C(=O)N[C@@H](C)C(=O)N[C@@H](CCCNC(=N)N)C(=O)N[C@@H](C)C(=O)N[C@@H](CCC(N)=O)C(=O)N[C@@H](CCC(=O)O)C(=O)N[C@@H](Cc1ccccc1)C(=O)N[C@H](C(=O)N[C@@H](CCCCN)C(=O)N[C@@H](Cc1c[nH]c2ccccc12)C(=O)N[C@@H](CC(C)C)C(=O)N[C@@H](CCC(=O)O)C(=O)N[C@@H](CC(=O)O)C(=O)N[C@@H](CCC(=O)O)C(=O)N1CCC[C@H]1C(=O)N[C@@H](CCCCN)C(=O)N[C@@H](CO)C(=O)N[C@@H](CCCCN)C(=O)N[C@@H](CO)C(=O)N1CCC[C@H]1C(=O)N1CCC[C@H]1C(=O)N1CCC[C@H]1C(=O)N[C@@H](CO)C(N)=O)C(C)C [Compound A73] (H-YSHGTFTSDYSKYLDSARAQEFVKWLEDEPKSKSPPPS-NH2; N-terminus assumed),23,0.002,> 1,–,–,–,–,–,–,–,–
CC(C)C[C@H](NC(=O)[C@H](Cc1ccc(O)cc1)NC(=O)[C@H](CCCCN)NC(=O)[C@H](CO)NC(=O)[C@H](Cc1ccc(O)cc1)NC(=O)[C@H](CC(=O)O)NC(=O)[C@H](CO)NC(=O)[C@@H](NC(=O)[C@H](Cc1ccccc1)NC(=O)[C@@H](NC(=O)CNC(=O)[C@H](Cc1c[nH]cn1)NC(=O)[C@H](CO)NC(=O)[C@@H](N)Cc1ccc(O)cc1)[C@@H](C)O)[C@@H](C)O)C(=O)N[C@@H](CC(=O)O)C(=O)NC(C)(C)C(=O)N[C@@H](C)C(=O)N[C@@H](CCCNC(=N)N)C(=O)N[C@@H](C)C(=O)N[C@@H](CCC(N)=O)C(=O)N[C@@H](CCC(=O)O)C(=O)N[C@@H](Cc1ccccc1)C(=O)N[C@H](C(=O)NC(C)(C)C(=O)N[C@@H](Cc1c[nH]c2ccccc12)C(=O)N[C@@H](CC(C)C)C(=O)N[C@@H](CCC(=O)O)C(=O)N[C@@H](CC(=O)O)C(=O)N[C@@H](CCC(=O)O)C(=O)N1CCC[C@H]1C(=O)N[C@@H](CO)C(=O)N[C@@H](CO)C(=O)NCC(=O)N[C@@H](C)C(=O)N1CCC[C@H]1C(=O)N1CCC[C@H]1C(=O)N1CCC[C@H]1C(=O)N[C@@H](CO)C(=O)O)C(C)C [Compound A103] (H-YSHGTFTSDYSKYLD[Aib]ARAQEFV[Aib]WLEDEPSSGAPPPS-OH; N-terminus assumed),28.5,–,> 1,0.00126,11.9,> 200,> 1,–,–,–,–
CCCCCCCCCCCCCCCC(=O)N[C@@H](CCC(=O)NCCCC[C@H](NC(=O)[C@H](CC(=O)O)NC(=O)[C@H](CC(C)C)NC(=O)[C@H](Cc1ccc(O)cc1)NC(=O)[C@H](CCCCN)NC(=O)[C@H](CO)NC(=O)[C@H](Cc1ccc(O)cc1)NC(=O)[C@H](CC(=O)O)NC(=O)[C@H](CO)NC(=O)[C@@H](NC(=O)[C@H](Cc1ccccc1)NC(=O)[C@@H](NC(=O)CNC(=O)[C@H](Cc1c[nH]cn1)NC(=O)[C@H](CO)NC(=O)[C@@H](N)Cc1ccc(O)cc1)[C@@H](C)O)[C@@H](C)O)C(=O)N[C@@H](CCCCN)C(=O)N[C@@H](Cc1ccc(O)cc1)C(=O)N[C@@H](C)C(=O)N[C@@H](CCC(N)=O)C(=O)N[C@@H](CCC(=O)O)C(=O)N[C@@H](Cc1ccccc1)C(=O)N[C@H](C(=O)NC(C)(C)C(=O)N[C@@H](Cc1c[nH]c2ccccc12)C(=O)N[C@@H](CC(C)C)C(=O)N[C@@H](CCC(=O)O)C(=O)N[C@@H](CC(=O)O)C(=O)N[C@@H](CCC(=O)O)C(=O)N1CCC[C@H]1C(=O)N[C@@H](CO)C(=O)N[C@@H](CO)C(=O)NCC(=O)N[C@@H](C)C(=O)N1CCC[C@H]1C(=O)N1CCC[C@H]1C(=O)N1CCC[C@H]1C(=O)N[C@@H](CO)C(=O)O)C(C)C)C(=O)O [Compound B3],–,–,–,–,–,–,–,18.8,1.79,0.00398,> 1000
CCCCCCCCCCCCCCCC(=O)N[C@@H](CCC(=O)NCCCC[C@H](NC(=O)[C@H](CO)NC(=O)[C@H](CO)NC(=O)[C@@H]1CCCN1C(=O)[C@H](CCC(=O)O)NC(=O)[C@H](CC(=O)O)NC(=O)[C@H](CCC(=O)O)NC(=O)[C@H](CC(C)C)NC(=O)[C@H](Cc1c[nH]c2ccccc12)NC(=O)C(C)(C)NC(=O)[C@@H](NC(=O)[C@H](Cc1ccccc1)NC(=O)[C@H](CCC(=O)O)NC(=O)[C@H](CCC(N)=O)NC(=O)[C@H](C)NC(=O)[C@H](CO)NC(=O)[C@H](CCCCN)NC(=O)C(C)(C)NC(=O)[C@H](CC(=O)O)NC(=O)[C@H](CC(C)C)NC(=O)[C@H](Cc1ccc(O)cc1)NC(=O)[C@H](CCCCN)NC(=O)[C@H](CO)NC(=O)[C@H](Cc1ccc(O)cc1)NC(=O)[C@H](CC(=O)O)NC(=O)[C@H](CO)NC(=O)[C@@H](NC(=O)[C@H](Cc1ccccc1)NC(=O)[C@@H](NC(=O)CNC(=O)[C@H](Cc1c[nH]cn1)NC(=O)[C@H](CO)NC(=O)[C@@H](N)Cc1ccc(O)cc1)[C@@H](C)O)[C@@H](C)O)C(C)C)C(=O)N[C@@H](C)C(=O)N1CCC[C@H]1C(=O)N1CCC[C@H]1C(=O)N1CCC[C@H]1C(=O)N[C@@H](CO)C(=O)O)C(=O)O [Compound B9],–,–,–,–,–,–,–,0.594,4.98,0.00794,> 1000
